Data taken from patent publication US5220042A, “1,4-benzoquinone derivatives and benzene derivatives, and process for preparing the same” (priority 1984, dated 1993).
Like-named read-outs stand apart in the source and are kept apart here.

Tested on: SRS-A release from lung fragments
Assay: Inhibition of SRS-A release from sensitized guinea pig lung fragments
Type: cell-based, guinea pig (Hartley strain)
Conditions: Cavia porcellus
Experimental: Inhibitory activities on the release of SRS-A and histamine of the present compounds were determined.
A male guinea pig (Hartley strain) (body weight: about 300 g) was sensitized by a method according to P. Anderson: "Int. Archs. Allergey appln. Immunol., Vol. 64, pages 249-258 (1981). Thus, 30 mg/kg of cyclophosphamide was intraperitoneally administered to the guinea pig, and 2 days after 1 microgram of ovalbumin (manufactured by Sigma Chemical Co., St. Louis, Mo. U. S. A.) together with 10 mg of aluminium hydroxide gel were intraperitoneally administered so as to have the animal sesitized.
50 Days after the sesitization, the animal was killed by exsanguination, and the lung was isolated from the animal and was perfused with 20 ml of Tyrode's solution, then immersed in an ice-cooled Tyrode's solution. The parenchyma of the lung was cut by using McIlwain-type tissue chopper to make it into fragments of lung having 2 mm square and the fragments were washed with Tyrode's solution. 400 Milligrams of sectiles of lung were suspended in 3.6 ml of Tyrode's solution, and this suspension was preincubated at 37° C. for 5 minutes, then 4 microliters of dimethyl sulfoxide solution of the test compound, in the case of control 4 microliters of dimethyl sulfoxide alone was added to the suspension. 5 Minutes after, 0.4 ml of 100 micrograms/ml of ovalbumin solution added so as to release SRS-A for 10 minutes. The suspension was ice-cooled and filtered through gauze, the filtrate was centrifuged at 2,000 rpm for 10 minutes and the supernatant was collected. The supernatant was stored in freezed state at -80° C. until bio-assay was conducted.
Amounts of SRS-A and histamine contained in the supernatant were determined by bio-assay using ileum of guinea pig.
A piece of the ileum (2-3 cm of length) positioned from 15-25 cm from the opening portion of ileocecum was isolated from a male guinea pig (Hartley strain) (body weight: 400-600 g) which was fasted for 24 hours. The piece of ileum was hanged vertically in a Magnus tube which was filled with 10 ml of Tyrode's solution containing 10^-7 M of atropine sulfate under air stream conditions. The isotonic contraction of the piece of the ileum was measured at 0.5 g of load by using an isotonic transducer "TD-112S" (manufactured by Nihon Koden Co., Ltd.). The measurements were carried out after the reaction to histamine of the piece of ileum was kept constant. Bioassay of histamine was measured by using the value of contraction shown in 30 seconds after the addition of the supernatant. Bioassay of on SRS-A was measured by using the value of contraction shown at 2 minutes after the addition of the supernatant in the presence of 10^-6 M of pyrilamine (manufactured by Sigma Chemical Co.), and compared with the standard curve of crude SRS-A released from the fragments of the lung.

[1] = Table 2B, read-out: Inhibitory activities on SRS-A (%)
[2] = Table 2B, 3 μM, read-out: Inhibitory activities on SRS-A (%)
[3] = Table 2B, 30 μM, read-out: Inhibitory activities on SRS-A (%)
[4] = Table 2, dose 3 μM, read-out: Inhibition ratio (%) SRS-A
[5] = Table 2, dose 30 μM, read-out: Inhibition ratio (%) SRS-A

Compound | inhibition at 1 µM [1] | inhibition at 10 µM [1] | inhibition at 3 µM [2] | inhibition at 30 µM [3] | inhibition at 3 µM [4] | inhibition at 30 µM [5]
COC1=CC(=O)C(OC)=C(CCCCC2=C(OC)C(=O)C=C(OC)C2=O)C1=O [Test Compound No. 24, 2,2'-Tetramethylenebis(3,6-dimethoxy-1,4-benzoquinone)] | 36.1% | 67.7% | – | – | – | –
COC1=C(CCCCCC2=C(OC)C(=O)C(OC)=C(OC)C2=O)C(=O)C(OC)=C(OC)C1=O [Test Compound No. 54, 2,2'-Pentamethylenebis(3,5,6-trimethoxy-1,4-benzoquinone)] | 32% | 88.7% | – | – | – | –
COC1=CC(=O)C(OC)=C(CC2=C(OC)C(=O)C=C(OC)C2=O)C1=O [compound 22] | 37.6% | 85.4% | – | – | – | –
COC1=CC(=O)C(OC)=C(CCCOCCC2=C(OC)C(=O)C=C(OC)C2=O)C1=O [Test Compound No. 25, 2-(3,6-Dimethoxy-1,4-benzoquinon-2-yl)ethyl 3-(3,6-dimethoxy-1,4-benzoquinon-2-yl)propyl ether] | 52.4% | 94.4% | – | – | – | –
COC1=C(CCO)C(=O)C(OC)=C(CCCCCC2=C(OC)C(=O)C(OC)=C(OC)C2=O)C1=O [Test Compound No. 48, 1-(2,3,5-Trimethoxy-1,4-benzoquinon-6-yl)-5-[2,5-dimethoxy-3-(2-hydroxyethyl)-1,4-benzoquinon-6-yl]pentane] | 37.6% | 89.4% | – | – | – | –
CCCCC#CCCCC1=C(OC)C(=O)C=C(OC)C1=O [Test Compound No. 35, 2,5-Dimethoxy-3-(4-nonynyl)-1,4-benzoquinone] | – | – | 64.9% | 96% | – | –
COC1=CC(=O)C(OC)=C(CCCSSCCCC2=C(OC)C(=O)C=C(OC)C2=O)C1=O [Test Compound No. 28, Bis[(3,6-dimethoxy-1,4-benzoquinon-2-yl)propyl] disulfide] | 30.5% | 85.2% | – | – | – | –
CCCCC1=C(OC)C(=O)C(CCCCCC2=C(OC)C(=O)C=C(OC)C2=O)=C(OC)C1=O [Test Compound No. 38, 3-Butyl-2,5-dimethoxy-6-[5-(2,5-dimethoxy-1,4-benzoquinon-3-yl)pentyl]-1,4-benzoquinone] | 25.1% | 38.2% | – | – | – | –
COC1=CC(=O)C(OC)=C(CCCCCC2=C(OC)C(=O)C(OC)=C(OC)C2=O)C1=O [Test Compound No. 53, 2,3,5-Trimethoxy-6-[5-(2,5-dimethoxy-1,4-benzoquinon-3-yl)pentyl]-1,4-benzoquinone] | 50.8% | 94.9% | – | – | – | –
COc1cc(OC(C)=O)c(OC)c(CCCCCc2c(OC)c(OC(C)=O)cc(OC)c2OC(C)=O)c1OC(C)=O [Test Compound No. 37, 1,5-bis[1,4-Diacetoxy-2,5-(dimethoxy)phen-3-yl]-pentane] | – | – | 69.2% | 90% | – | –
COC1=CC(=O)C(OC)=C(CCCCCCCC#CCCCCCCCC2=C(OC)C(=O)C=C(OC)C2=O)C1=O [Test Compound No. 20, 2,2'-(8-Hexadecynylene)bis(3,6-dimethoxy-1,4-benzoquinone)] | – | – | 14.5% | 24.1% | 14.5% | 24.1%
COC1=CC(=O)C(OC)=C(CCCCCSCCCCCC2=C(OC)C(=O)C=C(OC)C2=O)C1=O [Test Compound No. 29, Bis[(3,6-dimethoxy-1,4-benzoquinon-2-yl)-pentyl]sulfide] | 19.6% | 60.5% | – | – | – | –
COC1=C(CCO)C(=O)C(OC)=C(CCCCCC2=C(OC)C(=O)C(SC)=C(OC)C2=O)C1=O [Test Compound No. 49, 1-(2,5-Dimethoxy-3-methylthio-1,4-benzoquinon-6-yl)-5-[2,5-dimethoxy-3-(2-hydroxyethyl)-1,4-benzoquinon-6-yl]pentane] | -0.4% | 65.2% | – | – | – | –
COC1=CC(=O)C(OC)=C(COCC2=C(OC)C(=O)C=C(OC)C2=O)C1=O [Test Compound No. 26, Bis[(3,6-Dimethoxy-1,4-benzoquinon-2-yl)methyl] ether] | – | – | 10.9% | 39.8% | – | –
NC1=CC(=O)C(N)=C(CCCCCC2=C(N)C(=O)C=C(N)C2=O)C1=O [Test Compound No. 52, 2,2'-Pentamethylenebis(3,6-diamino-1,4-benzoquinone)] | 10% | 16.2% | – | – | – | –
CCOC(=O)C1=C(OC)C(=O)C(CCCCCC2=C(OC)C(=O)C(CCO)=C(OC)C2=O)=C(OC)C1=O [Test Compound No. 50, 1-(2,5-Dimethoxy-3-ethoxycarbonyl-1,4-benzoquinon-6-yl)-5-[2,5-dimethoxy-3-(2-hydroxyethyl)-1,4-benzoquinon-6-yl]pentane] | 14.8% | 41.7% | – | – | – | –
CCOC(=O)C1=C(OC)C(=O)C(CCCCCC2=C(OC)C(=O)C=C(OC)C2=O)=C(OC)C1=O [Test Compound No. 44, 1-(2,5-Dimethoxy-1,4-benzoquinon-3-yl)-5-(2,5-dimethoxy-3-ethoxycarbonyl-1,4-benzoquinon-6-yl)pentane] | -10.5% | 18.6% | – | – | – | –
COC1=CC(=O)C(OC)=C(CCCCCC2=C(OC)C(=O)C(CCO)=C(OC)C2=O)C1=O [Test Compound No. 40, 2,5-Dimethoxy-3-(2-hydroxyethyl)-6-[5-(2,5-dimethoxy-1,4-benzoquinon-3-yl)pentyl]-1,4-benzoquinone] | 38.2% | 91.7% | – | – | – | –
COC1=CC(=O)C(O)=C(CCCCCC2=C(O)C(=O)C=C(OC)C2=O)C1=O [Test Compound No. 51, 2,2'-Pentamethylenebis(3-hydroxy-6-methoxy-1,4-benzoquinone)] | 11.8% | 60.8% | – | – | – | –
COC1=CC(=O)C(OC)=C(CCCC2=C(OC)C(=O)C=C(OC)C2=O)C1=O [Test Compound No. 27, 2,2'-Trimethylenebis(3,6-dimethoxy-1,4-benzoquinone)] | 14.9% | 83.3% | – | – | – | –
COC1=C(CCCCCC2=C(OC)C(=O)C(SC)=C(OC)C2=O)C(=O)C(OC)=C(SC)C1=O [Test Compound No. 45, 2,2'-Pentamethylenebis(3,6-dimethoxy-5-methylthio-1,4-benzoquinone)] | 28.1% | 50.7% | – | – | – | –
COC1=CC(=O)C(OC)=C(CCCCCC2=C(OC)C(=O)C(CCCCCC3=C(OC)C(=O)C=C(OC)C3=O)=C(OC)C2=O)C1=O [Test Compound No. 41, 2,5-Dimethoxy-3,6-bis[5-(2,5-dimethoxy-1,4-benzoquinon-3-yl)-entyl]-1,4-benzoquinone] | 4.1% | 25% | – | – | – | –
COC1=CC(=O)C(OC)=C(CCCCCCCCCC#CCCCCCCCCCC2=C(OC)C(=O)C=C(OC)C2=O)C1=O [Test Compound No. 21, 2,2'-(10-Eicosynylene)bis(3,6-dimethoxy-1,4-benzoquinone)] | – | – | -21.7% | 16.6% | -21.7% | 16.6%
CC1=C(C)C(=O)C(CCCCCC2=C(C)C(=O)C(C)=C(C)C2=O)=C(C)C1=O [Test Compound No. 55, 2,2'-Pentamethylenebis(3,5,6-trimethyl-1,4-benzoquinone)] | 13.2% | 38.7% | – | – | – | –
COC1=CC(=O)C(OC)=C(CCCCCC2=C(OC)C(=O)C(SC)=C(OC)C2=O)C1=O [Test Compound No. 43, 1-(2,5-Dimethoxy-1,4-benzoquinon-3-yl)-5-(2,5-dimethoxy-3-methylthio-1,4-benzoquinon-6-yl)pentane] | 23.2% | 79.4% | – | – | – | –
CCCCC#CCCCC1=C(OC)C(=O)C(CCCCCC2=C(OC)C(=O)C=C(OC)C2=O)=C(OC)C1=O [Test Compound No. 39, 2,5 Dimethoxy-3-(4-nonynyl)-6-[5-(2,5-dimethoxy-1,4-benzoquinon-3-yl)pentyl]-1,4-benzoquinone] | 0% | 11% | – | – | – | –
CCOC(=O)C1=C(OC)C(=O)C(CCCCCC2=C(OC)C(=O)C(C(=O)OCC)=C(OC)C2=O)=C(OC)C1=O [Test Compound No. 46, 2,2'-Pentamethylenebis(3,6-dimethoxy-5-ethoxycarbonyl-1,4-benzoquinone)] | 18.2% | 16.2% | – | – | – | –
